These results are taken from paper PMC9333455, “Drug repurposing based on a quantum-inspired method versus classical fingerprinting uncovers potential antivirals against SARS-CoV-2” (PLoS Computational Biology, 2022).

The assay deals with SARS-CoV-2 variants Alpha (B.1.1.7), Beta (B.1.351), Delta (B.617.2). It is filed as cell-based. To be noted: Vero E6 and Caco-2 cells, 48 h.

Take `COc1nc(N)nc2c1ncn2[C@@H]1O[C@H](COP(=O)(N[C@@H](C)C(=O)OCC(C)(C)C)Oc2cccc3ccccc23)[C@@H](O)[C@@]1(C)O` (stereo partly shown) [BMS-986094]: the “replication of panel of SARS-CoV-2 variant isolates (in words)” value is “suppressed the replication”.
